In brackets after ≈: the same amount, converted by molar mass. Like-named read-outs stand apart in the source and are kept apart here.
Key:
M. tuberculosis H37Rv = assay: MABA (microplate Alamar blue assay) MIC; assay type: cell-based; conditions: Mycobacterium tuberculosis, 336 h, read-out: MIC M. tuberculosis H37Rv
[1] = test system: M. tuberculosis Spec. 192 (Sensitive to Tuberculostatics); assay: MABA (microplate Alamar blue assay) MIC; assay type: cell-based; conditions: Mycobacterium tuberculosis, 336 h, read-out: MIC M. tuberculosis Spec. 192 (Sensitive to Tuberculostatics)
SW480 cells = assay: MTT assay, SW480; assay type: cell-based, human; conditions: for IC50: human primary colon cancer, 72 h, MTT, mean ± SD; for SI SW480: SI = IC50 for normal cell line (HaCaT)/IC50 cancer cell line
SW620 cells = assay: MTT assay, SW620; assay type: cell-based, human; conditions: for IC50: human metastatic colon cancer, 72 h, MTT, mean ± SD; for SI SW620: SI = IC50 for normal cell line (HaCaT)/IC50 cancer cell line
PC3 cells = assay: MTT assay, PC3; assay type: cell-based, human; conditions: for IC50: Homo sapiens, PC-3, 72 h, human metastatic prostate cancer, 72 h, MTT, mean ± SD; for SI PC3: SI = IC50 for normal cell line (HaCaT)/IC50 cancer cell line
HaCaT cells = assay: MTT assay, HaCaT normal cells; assay type: cell-based; conditions: human immortal keratinocyte cell line, 72 h, mean ± SD
S. aureus NCTC 4163 = assay: MIC, twofold microdilution, standard strain; assay type: cell-based; conditions: Staphylococcus aureus, NCTC4163; 18 h of treatment; read-out: MIC S. aureus NCTC 4163
S. aureus ATCC 25923 = assay: MIC, twofold microdilution, standard strain; assay type: cell-based; conditions: Staphylococcus aureus, ATCC25923; 18 h of treatment; read-out: MIC S. aureus ATCC 25923
S. aureus ATCC 6538 = assay: MIC, twofold microdilution, standard strain; assay type: cell-based; conditions: Staphylococcus aureus, ATCC6538; 18 h of treatment; read-out: MIC S. aureus ATCC 6538
S. aureus ATCC 29213 = assay: MIC, twofold microdilution, standard strain; assay type: cell-based; conditions: Staphylococcus aureus, ATCC29213; 18 h of treatment; read-out: MIC S. aureus ATCC 29213
[2] = test system: S. epidermidis ATCC 12228; assay: MIC, twofold microdilution, standard strain; assay type: cell-based; conditions: Staphylococcus epidermidis, ATCC12228; 18 h of treatment; read-out: MIC S. epidermidis ATCC 12228
[3] = test system: S. epidermidis ATCC 35984; assay: MIC, twofold microdilution, standard strain; assay type: cell-based; conditions: Staphylococcus epidermidis, ATCC35984; 18 h of treatment; read-out: MIC S. epidermidis ATCC 35984
E. coli ATCC 25922 = assay: MIC, twofold microdilution, standard strain; assay type: cell-based, Escherichia coli; conditions: Escherichia coli, ATCC25922; 18 h of treatment; read-out: MIC E. coli ATCC 25922
P. aeruginosa ATCC 27853 = assay: MIC, twofold microdilution, standard strain; assay type: cell-based; conditions: Pseudomonas aeruginosa, read-out: MIC P. aeruginosa ATCC 27853
[4] = test system: S. epidermidis KR 4047 825/19; assay: MIC, clinical S. epidermidis strain; assay type: cell-based; conditions: Staphylococcus epidermidis, KR4047825/19, quinolone-resistant, 18 h of treatment
[5] = test system: S. epidermidis KR 4243 829/19; assay: MIC, clinical S. epidermidis strain; assay type: cell-based; conditions: Staphylococcus epidermidis, KR4243829/19, quinolone-susceptible, 18 h of treatment
[6] = test system: S. epidermidis KR 4313 834/19; assay: MIC, clinical S. epidermidis strain; assay type: cell-based; conditions: Staphylococcus epidermidis, KR4313834/19, quinolone-susceptible, 18 h of treatment
[7] = test system: S. epidermidis KR 4358/2 840/19; assay: MIC, clinical S. epidermidis strain; assay type: cell-based; conditions: Staphylococcus epidermidis, KR4358/2840/19; clinical S. epidermidis, quinolone-susceptible, 18 h of treatment; read-out: MIC KR 4358/2 840/19
[8] = test system: S. epidermidis T 5253 845/19; assay: MIC, clinical S. epidermidis strain; assay type: cell-based; conditions: Staphylococcus epidermidis, T5253845/19, quinolone-resistant, 18 h of treatment
[9] = test system: S. epidermidis T 5399 848/19; assay: MIC, clinical S. epidermidis strain; assay type: cell-based; conditions: Staphylococcus epidermidis, T5399848/19, quinolone-susceptible, 18 h of treatment
[10] = test system: S. epidermidis T 5501 851/19; assay: MIC, clinical S. epidermidis strain; assay type: cell-based; conditions: Staphylococcus epidermidis, T5501851/19, read-out: MIC T 5501 851/19, quinolone-susceptible, 18 h of treatment
[11] = test system: standard staphylococci (S. aureus, S. epidermidis); assay: MIC, standard Gram-positive strains as a group; assay type: cell-based; conditions: Staphylococcus aureus; range over standard Gram-positive strains; read-out: MIC against standard staphylococci
[12] = molecular target: T1, S. aureus topoisomerase IV (Staphylococcus aureus, UniProt P0C1S7+P0C1U9); assay: S. aureus topoisomerase IV decatenation assay; assay type: biochemical
T1 construct: purchased Inspiralis
Experimental: The assay was performed using S. aureus topoisomerase IV […] kit (Inspiralis). Kinetoplast DNA (kDNA) was the substrate for topoisomerase IV.

S. aureus DNA gyrase = S. aureus DNA gyrase (Staphylococcus aureus, UniProt P0A0K8+P20831); assay: biochemical

Row | SMILES | IC50 (SW480 cells; Homo sapiens, SW480, 72 h) | IC50 (SW620 cells; Homo sapiens, SW-620, 72 h) | IC50 (HaCaT cells) | MIC (S. aureus NCTC 4163) | MIC (S. aureus ATCC 25923) | MIC (S. aureus ATCC 6538) | MIC (S. aureus ATCC 29213) | MIC [2] | MIC [3] | MIC (E. coli ATCC 25922) | MIC [4] | MIC [5] | MIC [6] | MIC [7] | MIC [8] | MIC [9] | MIC [10] | also measured
1 | [H]/N=C(/N)N[C@H]1[C@H](O)[C@@H](O)[C@H](O[C@@H]2O[C@@H](C)[C@](O)(C=O)[C@H]2O[C@@H]2O[C@@H](CO)[C@H](O)[C@@H](O)[C@@H]2NC)[C@@H](N/C(N)=N\[H])[C@@H]1O [Streptomycin (SM), Streptomycin, reference compound] |  |  |  |  |  |  |  |  |  |  |  |  |  |  |  |  |  | MIC (M. tuberculosis H37Rv; 2 weeks of treatment): 1 mg/L (≈ 1.72 µM); MIC ([1]; 2 weeks of treatment): 1 mg/L (≈ 1.72 µM)
2 | COc1c(N2C[C@@H]3CCCN[C@@H]3C2)c(F)cc2c(=O)c(C(=O)O)cn(C3CC3)c12 [MXF, moxifloxacin, reference compound] | 58.4 ± 3.1 µM | 54.5 ± 3.8 µM | 121 ± 6.8 µM | 0.06 mg/L (≈ 0.149 µM) | < 0.03 mg/L | 0.06 mg/L (≈ 0.149 µM) | 0.06 mg/L (≈ 0.149 µM) | 0.06 mg/L (≈ 0.149 µM) | 0.06 mg/L (≈ 0.149 µM) | < 0.03 mg/L | 2 mg/L (≈ 4.98 µM) | 0.1 mg/L (≈ 0.249 µM) | 0.1 mg/L (≈ 0.249 µM) | 0.1 mg/L (≈ 0.249 µM) | 4 mg/L (≈ 9.96 µM) | 0.1 mg/L (≈ 0.249 µM) | 0.1 mg/L (≈ 0.249 µM) | IC50 (PC3 cells): 46.4 ± 3.2 µM; MIC (P. aeruginosa ATCC 27853; ATCC27853, 18 h of treatment): > 512 mg/L; MIC (M. tuberculosis H37Rv; 2 weeks of treatment): 0.25 mg/L (≈ 0.623 µM); MIC ([1]; 2 weeks of treatment): 0.125 mg/L (≈ 0.311 µM)
3 | CCCCCCCCCCCCCCCCCC(=O)N1CCCC2CN(c3c(F)cc4c(=O)c(C(=O)O)cn(C5CC5)c4c3OC)CC21 (stereo not shown) [Compound 16m, 1-Cyclopropyl-6-fluoro-8-methoxy-7-(1-octadecanoyl-octahydro-pyrrolo[3,4-b]pyridin-6-yl)-4-oxo-1,4-dihydro-quinoline-3-carboxylic acid] | < 5 µM | 6.5 ± 1.2 µM | 81.5 ± 4.2 µM | 64 mg/L (≈ 95.8 µM) | 64 mg/L (≈ 95.8 µM) | 64 mg/L (≈ 95.8 µM) | 64 mg/L (≈ 95.8 µM) | 64 mg/L (≈ 95.8 µM) | 64 mg/L (≈ 95.8 µM) | 128 mg/L (≈ 192 µM) | 256 mg/L (≈ 383 µM) | 64 mg/L (≈ 95.8 µM) | 128 mg/L (≈ 192 µM) | 512 mg/L (≈ 767 µM) | 512 mg/L (≈ 767 µM) | 512 mg/L (≈ 767 µM) | 512 mg/L (≈ 767 µM) | SI SW480 (SW480 cells): 30.2; IC50 (SW480 cells): 2.7 ± 0.7 µM; SI SW620 (SW620 cells): 12.5; SI PC3 (PC3 cells): 34.0; MIC (P. aeruginosa ATCC 27853; ATCC27853, 18 h): > 512 mg/L; MIC (M. tuberculosis H37Rv): > 512 mg/L; MIC [1]: > 512 mg/L; MIC [11]: > 32 mg/L
4 | CC=CC=CC(=O)N1CCN(c2cc3c(cc2F)c(=O)c(C(=O)O)cn3C2CC2)CC1 [Compound 2] |  |  |  |  |  |  |  |  |  |  |  |  |  |  |  |  |  | IC50 [12]: 75.2 µM; IC50 (S. aureus DNA gyrase): 79.9 µM
5 | CCCCCCCC/C=C\CCCCCCCCCCCC(=O)N1CCCC2CN(c3c(F)cc4c(=O)c(C(=O)O)cn(C5CC5)c4c3OC)CC21 (stereo not shown) [Compound 7m, 1-Cyclopropyl-7-{1-(Z)-docos-13-enoyl-octahydro-pyrrolo[3,4-b]pyridin-6-yl}-6-fluoro-8-methoxy-4-oxo-1,4-dihydro-quinoline-3-carboxylic acid] | 48.6 ± 2.6 µM | 51.8 ± 4.3 µM | 85.2 ± 3.3 µM | 256 mg/L (≈ 355 µM) | 512 mg/L (≈ 709 µM) | 128 mg/L (≈ 177 µM) | 512 mg/L (≈ 709 µM) | 512 mg/L (≈ 709 µM) | 256 mg/L (≈ 355 µM) | 256 mg/L (≈ 355 µM) | 512 mg/L (≈ 709 µM) | 256 mg/L (≈ 355 µM) | 256 mg/L (≈ 355 µM) | 256 mg/L (≈ 355 µM) | > 512 mg/L | 512 mg/L (≈ 709 µM) | 256 mg/L (≈ 355 µM) | SI SW480 (SW480 cells): 1.8; SI SW620 (SW620 cells): 1.6; IC50 (PC3 cells): 36.5 ± 2.3 µM; SI PC3 (PC3 cells): 2.3; MIC (P. aeruginosa ATCC 27853; ATCC27853, 18 h): > 512 mg/L; MIC (M. tuberculosis H37Rv): > 512 mg/L; MIC [1]: > 512 mg/L; MIC [11]: > 32 mg/L
6 | CC(C)=CCCC(C)=CC(=O)N1CCN(c2cc3c(cc2F)c(=O)c(C(=O)O)cn3C2CC2)CC1 [Compound 3] |  |  |  |  |  |  |  |  |  |  |  |  |  |  |  |  |  | IC50 [12]: > 133 µM; IC50 (S. aureus DNA gyrase): 107 µM
7 | N.N.[Cl][Pt][Cl] [Cisplatin, reference compound] |  |  |  |  |  |  |  |  |  |  |  |  |  |  |  |  |  | IC50 (SW480 cells): 10.4 ± 0.9 µM; IC50 (SW620 cells): 6.7 ± 1.1 µM

From article PMC9181188 (International Journal of Molecular Sciences, 2022)
